Test system in one data set: not given
Experiment: not given
Details: not given
One may read the melting point as the temperature, or range, at which the solid turns liquid. For the molecule `Cl.Oc1ccc(Nc2ncncc2C#Cc2ccccc2)cc1`, the melting point was 223 to 225 °C (dec.).
With `COc1ccc(C#Cc2cnc(N)nc2Nc2ccc(O)cc2)cc1.Cl`, the melting point is 220 to 230 °C (dec.).
The same measure, in the same setting: under `O[C@H]1CC[C@H](Nc2ncncc2C#Cc2ccc(Cl)cc2)CC1` (hydrate or solvate) [Example 4, 5-(4-chlorophenylethynyl)-4-(trans-4-hydroxycyclohexylamino) pyrimidine] stands 151 to 155 °C.
On the same count and under the same terms, under `Nc1ncc(C#Cc2ccc(Cl)cc2)c(N[C@H]2CC[C@H](O)CC2)n1` [Example 12, 2-amino-5-(4-chlorophenylethynyl)-4-(trans-4-hydroxycyclohexylamino)pyrimidine] stands 215 to 218 °C; under `Nc1ncc(C#Cc2ccc(Cl)cc2)c(NCCOCCO)n1` [Example 14, 2-amino-5-(4-chlorophenylethynyl)-4-[2-(2-hydroxyethoxy)ethylamino]pyrimidine], 176 to 180 °C.
`Nc1ncc(C#Cc2ccccc2)c(NCCOCCO)n1` [Example 19, 2-amino-4-[2-(2-hydroxyethoxy)ethylamino]-5-phenylethynyl pyrimidine] came in with a melting point of 128 to 129 °C.
With `Nc1ncc(C#Cc2ccc(Cl)cc2)c(OC2CCC(=O)CC2)n1` [Example 41, 2-amino-5-(4-chlorophenylethynyl)-4-(4-oxocyclohexyloxy) pyrimidine], the melting point is 168 to 172 °C.

In the next data set the test system is PC12 cells. Kind of data set: Choline acetyltransferase (ChAT) assay in NGF-treated PC12 cells. In kind it is cell-based, rat. The conditions noted are these: 3 days incubation with test compound, versus NGF alone. The procedure:
Cultured PC12 cells (rat adrenal pheochromocytoma from ATCC) have receptors for NGF. Responses include promotion of neurite outgrowth and elevation of choline acetyltransferase (ChAT) (L. A. Greene and A. S. Tischler, Cell Neurobiol., 3, 373 (1982)).
The following assay is modified from that described in H L White and P W Scates, Neurochem. Res., 16, 63 (1991). PC12 cells were cultured at 37° C. in RPMI supplemented with HEPES buffer, pH7.5 (to 10 mM), fetal bovine serum, horse serum, glutamine, penicillin, streptomycin and non-essential amino acids. Cultures were split 1:3 every 3 to 4 days. Exponentially dividing cells were plated into fresh medium on collagen-coated 12-well plastic dishes (10^5 cells/well). After allowing one day for cell attachment, the medium was replaced with low serum medium, with or without test compounds with each condition in triplicate. The medium may contain up to 0.2% ethanol, which was used as a solvent for most compounds tested. Cells were examined for morphological changes using an Olympus IMT-2 inverted research microscope. After 3 days incubation with test compounds, medium was removed and replaced with 0.2 ml of lysis and ChAT assay mixture. The plates were incubated at 37° C. for 2 hours and then placed into a freezer at −20° C.
Compounds are judged NGF-like in this primary screen if they (1) increase the activity of ChAT, (2) enhance NGF-stimulated neurite outgrowth or (3) potentiate or appear additive with the action of NGF itself.
The assay mixture contained 100 mM phosphate, pH7.4, 0.1% NP40, 150 mM NaCl, 1.5 mM choline, 10 mM EDTA, 0.1 mM eserine, 0.1 mM acetyl-coenzyme A and about 0.5 uCi (40–70 Ci/mol) [14C]acetyl-coenzyme A in each ml of mixture. Thawed and lysed cell reaction mixtures were diluted to 1 ml with water and transferred to 7 ml scintillation vials containing 5 ml of extraction/scintillation fluid solution (50 mg triphenyl borate, 50 mg PPO, 20 mg POPOP per 100 ml of 20% acetonitrile/80% toluene) and vortexed for 10 seconds. After all 20 diluted well contents were transferred and mixed, all the vials were vortexed again for 30 seconds, rotated for about 2 hours, and then vortexed once more. The vials were centrifuged at 3000 rpm (rmax.=16 cm) for 15 minutes and then counted in a Beckman LS6500 scintillation counter. Background counts from reaction mixtures with extracts from non-stimulated cells (no NGF and no test compound) were subtracted from reaction product counts before comparisons of ChAT activities were made.
The following data were obtained for representative compounds of the present invention which (1) increased the activity of choline acetyltransferase ChAT), (2) enhanced NGF-stimulated neurite outgrowth and/or (3) potentiated or appeared additive with the action of NGF itself. The concentration at which the test compound doubled the ChAT activity over the activity with NGF alone (no test compound) was recorded as the EC2x value.
`O[C@H]1CC[C@H](Nc2ncncc2C#Cc2ccc(Cl)cc2)CC1` [Example 4, 5-(4-chlorophenylethynyl)-4-(trans-4-hydroxycyclohexylamino) pyrimidine]: the “EC2× (concentration at which the test compound doubled the ChAT activity over the activity with NGF alone)” value amounted to 0.2 µM.
Consider `Nc1ncc(C#Cc2ccccc2)c(N[C@H]2CC[C@H](O)CC2)n1` [Example 9, 2-amino-4-(trans-4-hydroxycyclohexylamino)-5-phenylethynylpyrimidine], for which the “EC2× (concentration at which the test compound doubled the ChAT activity over the activity with NGF alone)” value was 0.1 µM.
Turning to `Nc1ncc(C#Cc2ccc(Cl)cc2)c(N[C@H]2CC[C@H](O)CC2)n1` [Example 12, 2-amino-5-(4-chlorophenylethynyl)-4-(trans-4-hydroxycyclohexylamino)pyrimidine], the “EC2× (concentration at which the test compound doubled the ChAT activity over the activity with NGF alone)” value came out at 0.2 µM.
Take `Nc1ncc(C#Cc2ccc(Cl)cc2)c(NCCO)n1` [Example 13, 2-amino-5-(4-chlorophenylethynyl)-4-(2-hyroxyethylamino) pyrimidine]: the “EC2× (concentration at which the test compound doubled the ChAT activity over the activity with NGF alone)” value is 0.3 µM.
As for `Nc1ncc(C#Cc2ccc(Cl)cc2)c(NCCOCCO)n1` [Example 14, 2-amino-5-(4-chlorophenylethynyl)-4-[2-(2-hydroxyethoxy)ethylamino]pyrimidine], the “EC2× (concentration at which the test compound doubled the ChAT activity over the activity with NGF alone)” value is 0.5 µM.
In the case of `Nc1ncc(C#Cc2ccc(Cl)cc2)c(N[C@H]2CC[C@@H](O)CC2)n1` [Example 23, 2-amino-5-(4-chlorophenylethynyl)-4-(4-cis-hydroxycyclohexylamino)pyrimidine], the “EC2× (concentration at which the test compound doubled the ChAT activity over the activity with NGF alone)” value worked out at 0.3 µM.
Turning to `CCc1ccc(C#Cc2cnc(N)nc2N[C@H]2CC[C@H](O)CC2)cc1.Cl` [Example 26, 2-amino-5-(4-ethylphenylethynyl)-4-(4-trans-hydroxycyclohexylamino) pyrimidine hydrochloride], the “EC2× (concentration at which the test compound doubled the ChAT activity over the activity with NGF alone)” value was 0.2 µM.

The values are drawn from patent publication US7205297B2, “Substituted 5-alkynyl pyrimidines having neurotrophic activity” (Krenitsky Pharmaceuticals, Inc., priority 2000, dated 2007).
